Assay results taken from US20190152957A1, “PYRIDIN-3-YL ACETIC ACID DERIVATIVES AS INHIBITORS OF HUMAN IMMUNODEFICIENCY VIRUS REPLICATION” (ViiV HEALTHCARE UK (NO.5) LIMITED, priority 2016, published 2019).
Like-named read-outs stand apart in the source and are kept apart here.

Tested on: recombinant NL-RLuc virus (HIV NL4-3 with Renilla Luciferase gene) in MT-2 cells
Assay: Inhibition of HIV replication (NL-RLuc virus, luciferase readout in MT-2 cells)
Format: cell-based
Details: MT2, 120 h
Description: Inhibition of HIV Replication:
A recombinant NL-RLuc proviral clone was constructed in which a section of the nef gene from NL4-3 was replaced with the Renilla Luciferase gene. This virus is fully infectious and can undergo multiple cycles of replication in cell culture. In addition, the luciferous reporter provides a simple and easy method for quantitating the extent of virus growth and consequently, the antiviral activity of test compounds. The plasmid pNLRLuc contains the proviral NL-Rluc DNA cloned into pUC18 at the PvuII site. The NL-RLuc virus was prepared by transfection of 293T cells with the plasmid pNLRLuc. Transfections were performed using the LipofectAMINE PLUS kit from Invitrogen (Carlsbad, Calif.) according to the manufacturer and the virus generated was titered in MT-2 cells. For susceptibility analyses, the titrated virus was used to infect MT-2 cells in the presence of compound, and after 5 days of incubation, cells were processed and quantitated for virus growth by the amount of expressed luciferase. Assay media was RPMI 1640 supplemented with 10% heat inactivated fetal bovine serum (FBS), 100 units/ml penicillin G/100 units/ml streptomycin, 10 mM HEPES buffer pH 7.55 and 2 mM L-glutamine. The results from at least 2 experiments were used to calculate the EC50 values. Luciferase was quantitated using the Dual Luciferase kit from Promega (Madison, Wis.). Susceptibility of viruses to compounds was determined by incubation in the presence of serial dilutions of the compound. The 50% effective concentration (EC50) was calculated by using the exponential form of the median effect equation where (Fa)=1/[1+(ED50/drug conc.)^m](Johnson V A, Byington R T. Infectivity Assay. In Techniques in HIV Research. ed. Aldovini A, Walker BD. 71-76. New York: Stockton Press. 1990). Activity equal to A refers to a compound having an EC50≤100 nM, while B and C denote compounds having an EC50 between 100 nM and 1 uM (B) or >1 uM (C).

Row | SMILES | EC50 (read-out: Activity) | EC50 (read-out: EC50 μM)
1 | Cc1nc(C)c([C@H](OC(C)(C)C)C(=O)O)c(N2CCC(C)(C)CC2)c1-c1ccc2c(c1)CCN(Cc1nccn1C)C2 [Compound 38, (S)-2-(tert-butoxy)-2-(4-(4,4-dimethylpiperidin-1-yl)-2,6-dimethyl-5-(2-((1-methyl-1H-imidazol-2-yl)methyl)-1,2,3,4-tetrahydroisoquinolin-6-yl)pyridin-3-yl)acetic acid] | < 0.1 µM | –
2 | COc1ccc(CN2CCc3cc(-c4c(C)nc(C)c([C@H](OC(C)(C)C)C(=O)O)c4N4CCC(C)(C)CC4)ccc3C2)c(OC)n1 [Compound 49, (S)-2-(tert-butoxy)-2-(5-(2-((2,6-dimethoxypyridin-3-yl)methyl)-1,2,3,4-tetrahydroisoquinolin-6-yl)-4-(4,4-dimethylpiperidin-1-yl)-2,6-dimethylpyridin-3-yl)acetic acid] | < 0.1 µM | –
3 | Cc1nc(C)c([C@H](OC(C)(C)C)C(=O)O)c(N2CCC(C)(C)CC2)c1-c1ccc2c(c1)CCN(C[C@H]1C[C@H]3C=C[C@@H]1C3)C2 [Compound 6, (S)-2-(5-(2-((1S,2S,4S)-bicyclo[2.2.1]hept-5-en-2-ylmethyl)-1,2,3,4-tetrahydroisoquinolin-6-yl)-4-(4,4-dimethylpiperidin-1-yl)-2,6-dimethylpyridin-3-yl)-2-(tert-butoxy)acetic acid] | < 0.1 µM | –
4 | Cc1nc(C)c([C@H](OC(C)(C)C)C(=O)O)c(N2CCC(C)(C)CC2)c1-c1ccc2c(c1)CCN(Cc1nn(C)cc1Cl)C2 [Compound 24, (S)-2-(tert-butoxy)-2-(5-(2-((4-chloro-1-methyl-1H-pyrazol-3-yl)methyl)-1,2,3,4-tetrahydroisoquinolin-6-yl)-4-(4,4-dimethylpiperidin-1-yl)-2,6-dimethylpyridin-3-yl)acetic acid] | < 0.1 µM | –
5 | Cc1cc(CN2CCc3cc(-c4c(C)nc(C)c([C@H](OC(C)(C)C)C(=O)O)c4N4CCC(C)(C)CC4)ccc3C2)n(C)n1 [Compound 16, (S)-2-(tert-butoxy)-2-(5-(2-((1,3-dimethyl-1H-pyrazol-5-yl)methyl)-1,2,3,4-tetrahydroisoquinolin-6-yl)-4-(4,4-dimethylpiperidin-1-yl)-2,6-dimethylpyridin-3-yl)acetic acid] | < 0.1 µM | –
6 | Cc1nc(C)c([C@H](OC(C)(C)C)C(=O)O)c(N2CCC(C)(C)CC2)c1-c1ccc2c(c1)CCN(Cc1ccc(=O)[nH]c1)C2 [Compound 52, (S)-2-(tert-butoxy)-2-(4-(4,4-dimethylpiperidin-1-yl)-2,6-dimethyl-5-(2-((6-oxo-1,6-dihydropyridin-3-yl)methyl)-1,2,3,4-tetrahydroisoquinolin-6-yl)pyridin-3-yl)acetic acid] | 0.1 to 1 µM | –
7 | CCN1CCc2cc(-c3c(C)nc(C)c([C@H](OC(C)(C)C)C(=O)O)c3N3CCC(C)(C)CC3)ccc2C1 [Compound 55, (S)-2-(tert-butoxy)-2-(4-(4,4-dimethylpiperidin-1-yl)-5-(2-ethyl-1,2,3,4-tetrahydroisoquinolin-6-yl)-2,6-dimethylpyridin-3-yl)acetic acid] | 0.1 to 1 µM | –
8 | Cc1n[nH]cc1CN1CCc2cc(-c3c(C)nc(C)c([C@H](OC(C)(C)C)C(=O)O)c3N3CCC(C)(C)CC3)ccc2C1 [Compound 53, (S)-2-(tert-butoxy)-2-(4-(4,4-dimethylpiperidin-1-yl)-2,6-dimethyl-5-(2-((3-methyl-1H-pyrazol-4-yl)methyl)-1,2,3,4-tetrahydroisoquinolin-6-yl)pyridin-3-yl)acetic acid] | < 0.1 µM | 0.061 µM
9 | Cc1nc(C)c([C@H](OC(C)(C)C)C(=O)O)c(N2CCC(C)(C)CC2)c1-c1ccc2c(c1)CCN(Cc1ccn[nH]1)C2 [Compound 26, (S)-2-(5-(2-((1H-pyrazol-5-yl)methyl)-1,2,3,4-tetrahydroisoquinolin-6-yl)-4-(4,4-dimethylpiperidin-1-yl)-2,6-dimethylpyridin-3-yl)-2-(tert-butoxy)acetic acid] | < 0.1 µM | –
10 | CCOc1ncccc1CN1CCc2cc(-c3c(C)nc(C)c([C@H](OC(C)(C)C)C(=O)O)c3N3CCC(C)(C)CC3)ccc2C1 [Compound 29, (S)-2-(tert-butoxy)-2-(4-(4,4-dimethylpiperidin-1-yl)-5-(2-((2-ethoxypyridin-3-yl)methyl)-1,2,3,4-tetrahydroisoquinolin-6-yl)-2,6-dimethylpyridin-3-yl)acetic acid] | < 0.1 µM | –
11 | CCn1cncc1CN1CCc2cc(-c3c(C)nc(C)c([C@H](OC(C)(C)C)C(=O)O)c3N3CCC(C)(C)CC3)ccc2C1 [Compound 15, (S)-2-(tert-butoxy)-2-(4-(4,4-dimethylpiperidin-1-yl)-5-(2-((1-ethyl-1H-imidazol-5-yl)methyl)-1,2,3,4-tetrahydroisoquinolin-6-yl)-2,6-dimethylpyridin-3-yl)acetic acid] | < 0.1 µM | –
12 | Cc1nc(C)c([C@H](OC(C)(C)C)C(=O)O)c(N2CCC(C)(C)CC2)c1-c1ccc2c(c1)CCN(CC1CCOC(C)(C)C1)C2 (stereo partly drawn) [Compound 3, (2S)-2-(tert-butoxy)-2-(4-(4,4-dimethylpiperidin-1-yl)-5-(2-((2,2-dimethyltetrahydro-2H-pyran-4-yl)methyl)-1,2,3,4-tetrahydroisoquinolin-6-yl)-2,6-dimethylpyridin-3-yl)acetic acid] | < 0.1 µM | –
13 | Cc1nn(C)c(Cl)c1CN1CCc2cc(-c3c(C)nc(C)c([C@H](OC(C)(C)C)C(=O)O)c3N3CCC(C)(C)CC3)ccc2C1 [Compound 54, (S)-2-(tert-butoxy)-2-(5-(2-((5-chloro-1,3-dimethyl-1H-pyrazol-4-yl)methyl)-1,2,3,4-tetrahydroisoquinolin-6-yl)-4-(4,4-dimethylpiperidin-1-yl)-2,6-dimethylpyridin-3-yl)acetic acid] | < 0.1 µM | –
14 | Cc1nc(C)c([C@H](OC(C)(C)C)C(=O)O)c(N2CCC(C)(C)CC2)c1-c1ccc2c(c1)CCN(Cc1nnn[nH]1)C2 [Compound 46, (S)-2-(5-(2-((1H-tetrazol-5-yl)methyl)-1,2,3,4-tetrahydroisoquinolin-6-yl)-4-(4,4-dimethylpiperidin-1-yl)-2,6-dimethylpyridin-3-yl)-2-(tert-butoxy)acetic acid] | < 0.1 µM | –
15 | Cc1nc(C)c([C@H](OC(C)(C)C)C(=O)O)c(N2CCC(C)(C)CC2)c1-c1ccc2c(c1)CCN(Cc1c[nH]nn1)C2 [Compound 27, (S)-2-(5-(2-((1H-1,2,3-triazol-4-yl)methyl)-1,2,3,4-tetrahydroisoquinolin-6-yl)-4-(4,4-dimethylpiperidin-1-yl)-2,6-dimethylpyridin-3-yl)-2-(tert-butoxy)acetic acid] | 0.1 to 1 µM | –
16 | Cc1nc(C)c([C@H](OC(C)(C)C)C(=O)O)c(N2CCC(C)(C)CC2)c1-c1ccc2c(c1)CCN(Cc1cnn(-c3ccc(F)cc3)c1)C2 [Compound 19, (S)-2-(tert-butoxy)-2-(4-(4,4-dimethylpiperidin-1-yl)-5-(2-((1-(4-fluorophenyl)-1H-pyrazol-4-yl)methyl)-1,2,3,4-tetrahydroisoquinolin-6-yl)-2,6-dimethylpyridin-3-yl)acetic acid] | < 0.1 µM | –
17 | Cc1nc(C)c([C@H](OC(C)(C)C)C(=O)O)c(N2CCC(C)(C)CC2)c1-c1ccc2c(c1)CCN(Cc1cccnn1)C2 [Compound 36, (S)-2-(tert-butoxy)-2-(4-(4,4-dimethylpiperidin-1-yl)-2,6-dimethyl-5-(2-(pyridazin-3-ylmethyl)-1,2,3,4-tetrahydroisoquinolin-6-yl)pyridin-3-yl)acetic acid] | < 0.1 µM | –
